Assay results: patent US5681826A, “Saccharide composition with reduced reducibility, and preparation and uses thereof” (Kabushiki Kaisha Hayashibara Seibutsu Kagaku Kenkyujo, priority 1994, dated 1997)
Entries after “also recorded” stand apart in the source; their conditions may differ.

How the values were obtained:
[1] = Maillard reaction with glycine, absorbance at 480 nm; format: physicochemical
Procedure: A solution, containing one % glycine and 10% of a saccharide preparation PI, P II, P III, P IV or P V in Experiment 4 and 50 mM phosphate buffer (pH 7.0), was kept at 100° C. for 90 min, followed by cooling the resultant solution, and determining for absorbance at a wave length of 480 nm in a 1-cm cell. As a control, maltotriose, maltotetraose, maltopentaose, maltohexaose and maltoheptaose, as a material for the saccharide preparations, were similarly treated as above, and measured for absorbance at a wave length of 480 nm.
A solution, containing one % of glycine, 10% of a high-purity trehalose preparation with a purity of 99.5%, d.s.b., obtained by the method in Experiment 17, and 50 mM phosphate buffer (pH 7.0), was kept at 100° C. for 90 min, followed by cooling the resultant solution and determining the absorbance at a wave length of 480 nm in a 1-cm cell. As a control, glucose and maltose were similarly treated as above, and the resultants were determined for absorbance at a wave length of 480 nm.

[2] = Utilization test in vivo, oral administration to healthy male volunteers; parameters: species or system human; conditions: 30 g oral
Procedure: In accordance with the method as reported by H. Atsuji et al. in "Rinsho-Eiyo", Vol.41, No.2, pp.200-208 (1972), 30 g of a high-purity trehalose preparation with a purity of 99.5%, d.s.b., obtained by the method in Experiment 17 was dissolved in water into a 20 w/v % aqueous solution which was then orally administered to 6 healthy male volunteers. The volunteers were collected their blood at a prescribed time interval, and each collected blood was assayed for blood sugar- and insulin-levels. As a control Glucose was used.

[3] = tested on: trehalose derived from pig kidney; test: Hydrolysis of trehalose by enzyme derived from pig kidney; format: biochemical; conditions: pH 5.7, 37°C., 18 hours (Experiment 7)
Procedure: To purify trehalose in each reaction mixture, it was subjected to column chromatography using a column packed with "XT-1016", a strong-acid cation exchange resin in Na^+ -form commercialized by Tokyo Organic Chemical Industries, Ltd., Tokyo, Japan, followed by recovering fractions containing 97% or more of trehalose. The fractions were pooled and concentrated into an about 65% solution which was then allowed to stand at 25° C. for 2 days to crystallize trehalose into hydrous crystalline trehalose, followed by separating and drying it in vacuo to obtain a high-purity trehalose preparation with a purity of 99% or more, d.s.b. The yields of trehalose from glucosyltrehalose, maltosyltrehalose, maltotriosyltrehalose, maltotetraosyltrehalose and maltopentaosyltrehalose used as a substrate were respectively 9.5%, 14.9%, 16.0%, 18.5% and 17.7%, d.s.b. The high-purity trehalose preparations and a commercially available trehalose specimen as a standard were studied for melting point, heat of fusion, specific rotation, infrared absorption spectrum, powdery X-ray diffraction pattern, and readiness of hydrolysis by a […] derived from pig kidney, commercialized by Sigma Chemical Co., St. Louise, USA.

OC[C@H]1O[C@H](O[C@H]2O[C@H](CO)[C@@H](O)[C@H](O)[C@H]2O)[C@H](O)[C@@H](O)[C@@H]1O [Trehalose, α,α-trehalose]
Coloration degree relative to glucose or maltose [1]: 0.4-0.6%
Maillard reaction [1]: substantially free from the maillard reaction
Coloration degree (480 nm) ([1]; one % glycine, 10% saccharide, pH 7.0, 100°C., 90 min, 1-cm cell): 0.006
Time of maximum blood sugar level ([2]; 20 w/v % aqueous solution): 0.5 to 1 h
Time of maximum insulin level ([2]; 20 w/v % aqueous solution): 0.5 to 1 h
Utilization by the body ([2]; control glucose): readily assimilated, absorbed, metabolized and utilized by the body as an energy source
Hydrolysis to glucose by pig kidney enzyme [3]: hydrolyzed by trehalose into glucose molecules; also recorded: decomposed into glucose molecules
